Consider three compounds from US20260022112A1, “NOVEL CO-CRYSTAL OF ENAVOGLIFLOZIN” (DAEWOONG PHARMACEUTICAL CO., LTD., priority 2022, published 2026).

Usually solubility stands for how much of the substance goes into solution per volume. Read a high solubility as a readily soluble substance. The AUC(0-inf) is the area under the concentration-time curve extrapolated to infinity. Higher therefore signals more exposure. One may read the AUC(0-t) as exposure summed from dosing to a finite time, without extrapolation to infinity. By half-life is commonly meant how long it takes for the measured level to halve. A higher half-life goes with slow loss. In general, Cmax refers to the highest concentration seen after dosing. In general, Tmax refers to the time from dosing to the highest level.

Values after ≈ are worked out from the molar mass of the structure shown. Where two headings read alike, the source gives them in different places.

A short description of data set [1]: Solubility in artificial gastric fluid (FaSSGF). It counts as physicochemical. To be noted: fassgf or other biorelevant, thermodynamic from solid.
Data set [2] in a line: Solubility in artificial intestinal fluid (FaSSIF). It is filed as physicochemical. As to conditions: thermodynamic from solid.
Data set [3] is described as follows: Stress stability evaluation, 60° C., 4 weeks, HPLC. It is filed as physicochemical.
A short description of data set [4]: Pharmacokinetic evaluation in beagle dogs. To be noted: plasma, 1 mg/kg. It counts as in vivo. As to the method: A test was conducted to confirm whether the pharmacokinetic profiles of enavogliflozin/proline co-crystals were improved in beagle dogs. Each of the crystalline form A of enavogliflozin and the proline co-crystal was orally administered at a dose of 1 mg/kg to male beagle dogs by setting the crystalline form A of enavogliflozin as a control and the proline co-crystal as a comparative group, and blood collection was conducted before administration (0 hour), and for 0.083, 0.25, 0.5, 0.75, 1, 1.5, 2, 4, 6, 8, 12, and 24 hours (a total of 13 times). Blood drug concentrations were analyzed by LC-MS/MS using plasma separated from the collected samples, and pharmacokinetic parameters such as the maximum observed plasma concentration (Cmax), an area under the plasma concentration-time curve (AUClast and AUCinf), a time-to-maximum observed plasma concentration (Tmax), and a half-life (T1/2) were calculated and interpreted using the WinNonlin 5.0.1 program.

The conditions of data set [5]: crystalline form of Patent Document 2; cited from earlier work.

For `OC[C@H]1O[C@@H](c2cc(Cc3ccc(C4CC4)cc3)c(Cl)c3c2CCO3)[C@H](O)[C@@H](O)[C@@H]1O` [Crystalline form A of enavogliflozin, enavogliflozin], the solubility at 30 min in data set [1] (30 minutes) stood at 310 µg/mL (≈ 694 µM); in data set [2] (30 minutes), 690 µg/mL (≈ 1540 µM). The solubility at 1 h in data set [1] (1 hour) turned out to be 340 µg/mL (≈ 761 µM); in data set [2] (1 hour), 940 µg/mL (≈ 2100 µM). Also, the solubility at 2 h in data set [1] (2 hours) worked out at 350 µg/mL (≈ 783 µM); in data set [2] (2 hours), 1000 µg/mL (≈ 2240 µM). Also, the solubility at 4 h amounted to 350 µg/mL (≈ 783 µM) in data set [1] (4 hours) and 920 µg/mL (≈ 2060 µM) in data set [2] (4 hours). This compound yielded a solubility at 0 h in data set [2] (Initial) of 10000 µg/mL (≈ 22400 µM). The “Purity (HPLC) in stress stability evaluation” value (“Purity (HPLC)” for short) in data set [3] (2 weeks, listed as Crystalline form of enavogliflozin) amounted to 98.8%; in data set [3] (4 weeks, listed as Crystalline form of enavogliflozin), 99.1%; in data set [3] (Initial, listed as Crystalline form of enavogliflozin), 99.1%. The AUC(0-inf) in data set [4] (male, beagle, dog, po) was 4640 ng·h/mL. In data set [4] (male, beagle, dog, po), the AUC(0-t) was found to be 4340 ng·h/mL. This compound also gave a half-life in data set [4] (male, beagle, dog, po) of 5.32 h. Further, the Cmax in data set [4] (male, beagle, dog, po, read-out: Cmax) worked out at 482 ng/mL. The Tmax in data set [4] (male, beagle, dog, po, read-out: Tmax) was determined as 4 h.

For `OC[C@H]1O[C@@H](c2cc(Cc3ccc(C4CC4)cc3)c(Cl)c3c2CCO3)[C@H](O)[C@@H](O)[C@@H]1O` [Enavogliflozin/proline co-crystal], the “Purity (HPLC)” value in data set [3] (2 weeks) is recorded as 99.9%. In data set [3] (4 weeks), the “Purity (HPLC)” value was found to be 99.8% and the “Thermal stability compared with crystalline form of enavogliflozin” value is “equivalent to that of the crystalline form of enavogliflozin”. Further, the “Purity (HPLC)” value in data set [3] (Initial) is given as 99.9%. Also, in data set [4] (male beagle dogs, oral), the AUCinf amounted to 5341.58 ng·h/mL, the AUClast stood at 4428.20 ng·h/mL, the Cmax is reported as 482.60 ng/mL and the T1/2 turned out to be 6.10 h. For the same compound, the Tmax in data set [4] (male beagle dogs, oral) is 5.20 h.

`OC[C@H]1O[C@@H](c2cc(Cc3ccc(C4CC4)cc3)c(Cl)c3c2CCO3)[C@H](O)[C@@H](O)[C@@H]1O` [enavogliflozin]: in data set [5], the “Solubility (water solubility)” value was 250 µg/mL (≈ 559 µM).
